ChEMBL document CHEMBL1201862, “PubChem BioAssay data set” (2004)
Activity calls are given as the source filed them.

Key:
Bcl-2-like protein 10 = molecular target: T1, Bcl-2-like protein 10 (Homo sapiens, UniProt Q9HD36); assay: displacers of TR3 peptide from Bcl-B, primary screen, selectivity assay for Bfl-1 inhibitor project, biochemical, fluorescence polarization, FITC-TR3 peptide (AID 748);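 further: fluorescence polarization from a fluorescein-labelled TR3 peptide binding purified Bcl-B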
T1 sequence (Q9HD36 whole entry): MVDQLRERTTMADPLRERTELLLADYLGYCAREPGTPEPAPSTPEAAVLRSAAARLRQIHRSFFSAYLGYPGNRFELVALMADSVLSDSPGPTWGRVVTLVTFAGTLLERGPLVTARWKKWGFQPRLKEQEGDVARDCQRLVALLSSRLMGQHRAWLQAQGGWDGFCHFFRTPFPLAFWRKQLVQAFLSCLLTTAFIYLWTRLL

[1] = molecular target: DNA dC->dU-editing enzyme APOBEC-3G (Homo sapiens, UniProt Q9HC16); assay: Dose Response confirmation of small molecule APOBEC3G DNA Deaminase Inhibitors via a fluorescence-based single-stranded DNA deaminase assay. [Related pubchem assays (depositor defined):AID493012, AID493028]; format: functional
Chain of DNA dC->dU-editing enzyme APOBEC-3G (Q9HC16 whole entry): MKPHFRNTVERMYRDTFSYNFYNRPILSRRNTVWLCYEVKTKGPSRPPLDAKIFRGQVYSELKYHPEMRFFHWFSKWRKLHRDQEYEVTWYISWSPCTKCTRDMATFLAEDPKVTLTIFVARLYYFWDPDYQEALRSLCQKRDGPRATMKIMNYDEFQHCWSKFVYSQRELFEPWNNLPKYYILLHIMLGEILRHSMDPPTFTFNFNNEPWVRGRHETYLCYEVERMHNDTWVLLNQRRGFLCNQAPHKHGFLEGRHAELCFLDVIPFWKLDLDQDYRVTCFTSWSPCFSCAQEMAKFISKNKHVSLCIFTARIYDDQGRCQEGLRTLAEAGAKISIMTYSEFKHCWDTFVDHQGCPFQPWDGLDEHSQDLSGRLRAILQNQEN

[2] = molecular target: T2, Kappa-type opioid receptor (Homo sapiens, UniProt P41145); format: functional
T2 sequence (P41145 whole entry): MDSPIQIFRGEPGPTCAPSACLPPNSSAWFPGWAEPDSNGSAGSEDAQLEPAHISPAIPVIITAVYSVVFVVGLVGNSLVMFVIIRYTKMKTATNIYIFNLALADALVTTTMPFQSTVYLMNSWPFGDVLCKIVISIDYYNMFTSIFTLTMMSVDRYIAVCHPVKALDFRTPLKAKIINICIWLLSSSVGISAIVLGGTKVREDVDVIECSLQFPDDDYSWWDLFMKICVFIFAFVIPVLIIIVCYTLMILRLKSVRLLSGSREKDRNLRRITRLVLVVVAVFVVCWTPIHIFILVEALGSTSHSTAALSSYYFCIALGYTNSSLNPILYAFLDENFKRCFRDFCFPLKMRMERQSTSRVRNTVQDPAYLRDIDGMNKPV

[3] = molecular target: T2, Kappa-type opioid receptor; format: functional; remark: listed apart in the source
Beta-galactosidase = Beta-galactosidase (Escherichia coli, UniProt Q8VNN2); format: functional
Chain of Beta-galactosidase (Q8VNN2 whole entry): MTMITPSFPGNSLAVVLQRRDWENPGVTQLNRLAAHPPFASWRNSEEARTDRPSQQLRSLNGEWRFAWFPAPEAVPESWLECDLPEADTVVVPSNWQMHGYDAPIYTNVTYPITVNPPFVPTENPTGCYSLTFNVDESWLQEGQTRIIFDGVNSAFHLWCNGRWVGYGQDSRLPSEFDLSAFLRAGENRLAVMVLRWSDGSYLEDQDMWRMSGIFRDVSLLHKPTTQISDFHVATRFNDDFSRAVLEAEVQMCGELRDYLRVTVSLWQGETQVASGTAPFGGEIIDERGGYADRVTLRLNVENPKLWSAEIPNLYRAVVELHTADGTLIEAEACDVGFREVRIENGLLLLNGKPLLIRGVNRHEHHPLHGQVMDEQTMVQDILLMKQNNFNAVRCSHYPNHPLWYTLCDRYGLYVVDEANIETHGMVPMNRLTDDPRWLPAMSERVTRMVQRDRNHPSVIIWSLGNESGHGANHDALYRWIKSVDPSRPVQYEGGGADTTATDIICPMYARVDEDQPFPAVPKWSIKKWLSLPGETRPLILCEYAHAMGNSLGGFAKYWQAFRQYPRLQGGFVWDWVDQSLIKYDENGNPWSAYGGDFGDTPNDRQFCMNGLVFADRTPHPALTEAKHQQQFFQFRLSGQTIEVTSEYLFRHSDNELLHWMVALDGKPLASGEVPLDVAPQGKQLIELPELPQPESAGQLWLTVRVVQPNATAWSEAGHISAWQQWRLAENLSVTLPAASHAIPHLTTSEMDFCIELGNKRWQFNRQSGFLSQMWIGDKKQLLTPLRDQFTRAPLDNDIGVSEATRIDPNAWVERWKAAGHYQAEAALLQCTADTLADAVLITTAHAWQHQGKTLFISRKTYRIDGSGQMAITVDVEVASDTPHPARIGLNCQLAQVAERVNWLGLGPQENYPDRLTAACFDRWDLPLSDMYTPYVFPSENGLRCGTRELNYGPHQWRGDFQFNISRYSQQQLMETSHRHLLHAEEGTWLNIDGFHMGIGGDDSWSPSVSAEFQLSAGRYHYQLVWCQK

[4] = molecular target: Voltage-dependent T-type calcium channel subunit alpha-1H (Homo sapiens, UniProt O95180); format: functional;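 further: channel activity triggered by adding a high calcium stimulation buffer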
Chain of Voltage-dependent T-type calcium channel subunit alpha-1H (O95180 whole entry): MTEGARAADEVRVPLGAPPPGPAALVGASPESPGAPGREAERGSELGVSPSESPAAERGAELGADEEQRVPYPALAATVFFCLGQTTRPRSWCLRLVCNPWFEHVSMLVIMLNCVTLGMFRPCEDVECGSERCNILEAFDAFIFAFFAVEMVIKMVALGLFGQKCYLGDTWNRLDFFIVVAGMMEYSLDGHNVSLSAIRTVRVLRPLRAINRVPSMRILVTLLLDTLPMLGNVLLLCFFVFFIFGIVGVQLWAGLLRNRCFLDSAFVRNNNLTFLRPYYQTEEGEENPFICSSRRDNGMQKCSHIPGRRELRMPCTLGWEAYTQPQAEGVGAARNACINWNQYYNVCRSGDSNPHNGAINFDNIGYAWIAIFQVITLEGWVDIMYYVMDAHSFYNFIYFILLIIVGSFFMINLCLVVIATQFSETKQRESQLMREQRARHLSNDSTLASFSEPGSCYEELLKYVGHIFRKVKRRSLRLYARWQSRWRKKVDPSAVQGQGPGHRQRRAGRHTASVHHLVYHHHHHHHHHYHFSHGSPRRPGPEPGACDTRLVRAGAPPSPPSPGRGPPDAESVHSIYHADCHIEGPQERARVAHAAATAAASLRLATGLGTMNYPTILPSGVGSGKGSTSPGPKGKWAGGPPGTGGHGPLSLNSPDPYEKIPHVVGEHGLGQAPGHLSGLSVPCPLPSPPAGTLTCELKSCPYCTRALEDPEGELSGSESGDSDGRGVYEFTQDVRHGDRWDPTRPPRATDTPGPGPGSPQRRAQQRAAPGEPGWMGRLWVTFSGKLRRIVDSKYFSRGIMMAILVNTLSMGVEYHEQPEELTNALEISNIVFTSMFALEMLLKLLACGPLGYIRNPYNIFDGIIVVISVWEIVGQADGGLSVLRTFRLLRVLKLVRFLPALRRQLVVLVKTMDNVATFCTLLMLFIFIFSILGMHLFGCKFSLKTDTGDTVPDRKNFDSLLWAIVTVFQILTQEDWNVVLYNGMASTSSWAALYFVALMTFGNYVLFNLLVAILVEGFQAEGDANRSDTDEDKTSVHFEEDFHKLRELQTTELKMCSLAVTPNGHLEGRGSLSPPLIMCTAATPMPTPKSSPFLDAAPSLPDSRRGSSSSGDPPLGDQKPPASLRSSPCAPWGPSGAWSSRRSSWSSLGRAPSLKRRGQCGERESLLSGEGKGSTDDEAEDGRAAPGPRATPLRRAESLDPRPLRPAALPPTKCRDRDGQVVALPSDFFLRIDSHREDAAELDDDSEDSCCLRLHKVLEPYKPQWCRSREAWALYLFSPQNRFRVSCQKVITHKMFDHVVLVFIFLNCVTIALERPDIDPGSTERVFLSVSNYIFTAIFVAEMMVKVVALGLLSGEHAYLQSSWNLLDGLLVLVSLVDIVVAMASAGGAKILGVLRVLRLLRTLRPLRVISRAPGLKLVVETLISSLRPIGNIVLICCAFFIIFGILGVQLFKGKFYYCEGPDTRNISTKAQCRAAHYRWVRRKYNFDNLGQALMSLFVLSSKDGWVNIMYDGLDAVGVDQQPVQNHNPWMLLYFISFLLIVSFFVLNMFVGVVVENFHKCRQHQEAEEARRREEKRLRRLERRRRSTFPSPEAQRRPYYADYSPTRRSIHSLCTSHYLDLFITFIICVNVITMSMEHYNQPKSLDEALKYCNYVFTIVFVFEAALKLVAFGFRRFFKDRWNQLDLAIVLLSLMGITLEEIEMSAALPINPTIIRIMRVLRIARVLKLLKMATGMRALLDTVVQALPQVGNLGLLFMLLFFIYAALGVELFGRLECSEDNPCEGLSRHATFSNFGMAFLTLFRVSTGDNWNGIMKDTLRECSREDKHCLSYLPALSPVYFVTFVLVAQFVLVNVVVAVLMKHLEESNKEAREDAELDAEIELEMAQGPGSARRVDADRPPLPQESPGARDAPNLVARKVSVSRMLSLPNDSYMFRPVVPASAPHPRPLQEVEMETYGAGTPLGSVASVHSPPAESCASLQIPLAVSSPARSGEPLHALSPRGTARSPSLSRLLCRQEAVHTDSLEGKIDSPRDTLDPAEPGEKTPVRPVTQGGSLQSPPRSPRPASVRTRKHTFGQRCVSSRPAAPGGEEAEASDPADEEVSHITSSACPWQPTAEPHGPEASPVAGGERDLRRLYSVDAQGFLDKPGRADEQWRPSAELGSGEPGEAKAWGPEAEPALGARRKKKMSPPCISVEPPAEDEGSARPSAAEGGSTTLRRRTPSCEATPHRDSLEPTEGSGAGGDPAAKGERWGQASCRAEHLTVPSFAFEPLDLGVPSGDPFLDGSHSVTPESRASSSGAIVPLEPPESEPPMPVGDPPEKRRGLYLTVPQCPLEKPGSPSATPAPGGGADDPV

[5] = inhibitors of intracellular T. cruzi replication, confirmation, NIH3T3 host cells, beta-gal luminescence (AID 2044); format: functional, cell-based;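 further: intracellular parasites grown in NIH/3T3 mouse fibroblasts as host cells; luminescent beta-galactosidase reporter signal from transgenic T. cruzi replicating inside host cells; inhibitors lower the luminescence signal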
[6] = cytotoxicity toward NIH3T3 fibroblasts, dose response, counter-screen, cell-based, ATP luminescence, mouse fibroblasts (AID 2010); format: functional;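 further: cells exposed to compound for about 90 hours before reading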
[7] = molecular target: T3, Short transient receptor potential channel 4 (Mus musculus, UniProt Q9QUQ5); assay: mouse TRPC4 channel inhibitors, dose response, cell-based, HEK293 TRPC4/mu-opioid, Fluo-4 calcium (AID 434942); format: functional;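 further: potency of inhibitors blocking the TRPC4 calcium response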
T3 sequence (Q9QUQ5 whole entry): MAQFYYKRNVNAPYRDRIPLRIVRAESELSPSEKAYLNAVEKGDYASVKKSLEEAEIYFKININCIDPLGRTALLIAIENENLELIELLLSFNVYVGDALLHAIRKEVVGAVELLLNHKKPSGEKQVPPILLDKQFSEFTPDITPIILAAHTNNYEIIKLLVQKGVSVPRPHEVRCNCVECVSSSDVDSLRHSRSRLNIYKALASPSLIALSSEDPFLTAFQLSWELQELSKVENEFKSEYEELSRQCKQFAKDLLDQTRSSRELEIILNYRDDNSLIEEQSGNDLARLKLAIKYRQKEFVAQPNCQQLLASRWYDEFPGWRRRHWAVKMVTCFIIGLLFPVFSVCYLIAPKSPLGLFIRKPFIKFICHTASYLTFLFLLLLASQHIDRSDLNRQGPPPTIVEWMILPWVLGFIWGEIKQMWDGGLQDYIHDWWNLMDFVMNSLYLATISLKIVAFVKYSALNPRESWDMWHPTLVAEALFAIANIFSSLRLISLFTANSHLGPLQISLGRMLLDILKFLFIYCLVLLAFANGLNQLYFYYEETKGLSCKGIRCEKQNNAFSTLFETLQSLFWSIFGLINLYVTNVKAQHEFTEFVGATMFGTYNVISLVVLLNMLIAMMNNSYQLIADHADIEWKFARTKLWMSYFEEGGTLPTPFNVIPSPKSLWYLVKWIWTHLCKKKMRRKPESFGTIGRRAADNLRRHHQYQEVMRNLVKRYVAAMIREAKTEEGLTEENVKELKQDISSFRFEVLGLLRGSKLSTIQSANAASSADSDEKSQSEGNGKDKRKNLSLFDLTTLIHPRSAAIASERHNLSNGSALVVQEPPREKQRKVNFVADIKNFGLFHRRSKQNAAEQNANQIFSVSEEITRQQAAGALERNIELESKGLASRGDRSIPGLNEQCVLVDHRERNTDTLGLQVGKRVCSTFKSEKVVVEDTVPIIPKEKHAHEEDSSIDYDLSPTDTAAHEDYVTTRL

[8] = molecular target: Induced myeloid leukemia cell differentiation protein Mcl-1 (Homo sapiens, UniProt Q07820); format: functional
Chain of Induced myeloid leukemia cell differentiation protein Mcl-1 (Q07820 whole entry): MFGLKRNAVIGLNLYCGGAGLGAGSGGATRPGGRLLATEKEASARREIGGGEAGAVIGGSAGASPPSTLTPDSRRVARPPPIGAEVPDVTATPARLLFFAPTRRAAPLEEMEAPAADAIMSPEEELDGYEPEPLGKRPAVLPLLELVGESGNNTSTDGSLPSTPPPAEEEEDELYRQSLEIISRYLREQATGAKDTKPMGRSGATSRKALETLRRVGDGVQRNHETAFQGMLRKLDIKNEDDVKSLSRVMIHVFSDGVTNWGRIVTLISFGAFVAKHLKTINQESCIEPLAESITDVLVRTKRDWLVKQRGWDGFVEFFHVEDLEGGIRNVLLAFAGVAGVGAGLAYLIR

Protein RecA = molecular target: T4, Protein RecA (Mycobacterium tuberculosis, UniProt P9WHJ3); assay: Fluorescence Cell-Free Homogeneous Dose Retest to Identify Inhibitors of RecA-Intein Splicing Activity. [Related pubchem assays (depositor defined):AID2097, AID2223, AID489010, AID492950]; format: functional
T4 sequence (P9WHJ3 whole entry): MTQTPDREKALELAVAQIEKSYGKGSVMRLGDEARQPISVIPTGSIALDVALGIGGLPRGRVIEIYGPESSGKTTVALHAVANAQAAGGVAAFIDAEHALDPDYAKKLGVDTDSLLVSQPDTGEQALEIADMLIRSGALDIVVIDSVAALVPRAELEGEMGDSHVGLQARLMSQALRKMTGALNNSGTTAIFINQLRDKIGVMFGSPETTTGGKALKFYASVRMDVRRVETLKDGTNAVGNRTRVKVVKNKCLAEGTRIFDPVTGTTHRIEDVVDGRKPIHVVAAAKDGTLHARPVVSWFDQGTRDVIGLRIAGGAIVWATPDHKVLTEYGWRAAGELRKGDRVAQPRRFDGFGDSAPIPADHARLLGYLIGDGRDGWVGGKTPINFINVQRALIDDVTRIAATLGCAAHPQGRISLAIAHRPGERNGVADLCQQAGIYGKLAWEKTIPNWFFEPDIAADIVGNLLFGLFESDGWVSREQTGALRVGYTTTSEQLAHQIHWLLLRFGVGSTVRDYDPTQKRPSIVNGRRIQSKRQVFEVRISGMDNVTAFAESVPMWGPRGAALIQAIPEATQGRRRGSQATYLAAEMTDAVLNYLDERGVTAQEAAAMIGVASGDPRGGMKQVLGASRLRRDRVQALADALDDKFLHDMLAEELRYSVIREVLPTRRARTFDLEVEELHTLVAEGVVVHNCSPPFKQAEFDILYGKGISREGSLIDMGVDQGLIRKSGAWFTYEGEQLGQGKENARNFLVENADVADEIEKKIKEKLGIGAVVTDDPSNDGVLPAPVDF

Large T antigen = Large T antigen (Simian virus 40, UniProt P03070); format: functional, Betapolyomavirus macacae;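 further: Confirmatory-stage PubChem screen for compounds that inhibit SV40 T antigen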
Aminopeptidase N = molecular target: T5, Aminopeptidase N (Plasmodium falciparum FcB1/Columbia, UniProt O96935); assay: P. falciparum M1AAP inhibitors, biochemical, fluorogenic H-Leu-NHMec substrate, 1536-well (AID 1445); set-up: species or system Plasmodium falciparum 3D7, 3D7
T5 sequence (O96935 whole entry): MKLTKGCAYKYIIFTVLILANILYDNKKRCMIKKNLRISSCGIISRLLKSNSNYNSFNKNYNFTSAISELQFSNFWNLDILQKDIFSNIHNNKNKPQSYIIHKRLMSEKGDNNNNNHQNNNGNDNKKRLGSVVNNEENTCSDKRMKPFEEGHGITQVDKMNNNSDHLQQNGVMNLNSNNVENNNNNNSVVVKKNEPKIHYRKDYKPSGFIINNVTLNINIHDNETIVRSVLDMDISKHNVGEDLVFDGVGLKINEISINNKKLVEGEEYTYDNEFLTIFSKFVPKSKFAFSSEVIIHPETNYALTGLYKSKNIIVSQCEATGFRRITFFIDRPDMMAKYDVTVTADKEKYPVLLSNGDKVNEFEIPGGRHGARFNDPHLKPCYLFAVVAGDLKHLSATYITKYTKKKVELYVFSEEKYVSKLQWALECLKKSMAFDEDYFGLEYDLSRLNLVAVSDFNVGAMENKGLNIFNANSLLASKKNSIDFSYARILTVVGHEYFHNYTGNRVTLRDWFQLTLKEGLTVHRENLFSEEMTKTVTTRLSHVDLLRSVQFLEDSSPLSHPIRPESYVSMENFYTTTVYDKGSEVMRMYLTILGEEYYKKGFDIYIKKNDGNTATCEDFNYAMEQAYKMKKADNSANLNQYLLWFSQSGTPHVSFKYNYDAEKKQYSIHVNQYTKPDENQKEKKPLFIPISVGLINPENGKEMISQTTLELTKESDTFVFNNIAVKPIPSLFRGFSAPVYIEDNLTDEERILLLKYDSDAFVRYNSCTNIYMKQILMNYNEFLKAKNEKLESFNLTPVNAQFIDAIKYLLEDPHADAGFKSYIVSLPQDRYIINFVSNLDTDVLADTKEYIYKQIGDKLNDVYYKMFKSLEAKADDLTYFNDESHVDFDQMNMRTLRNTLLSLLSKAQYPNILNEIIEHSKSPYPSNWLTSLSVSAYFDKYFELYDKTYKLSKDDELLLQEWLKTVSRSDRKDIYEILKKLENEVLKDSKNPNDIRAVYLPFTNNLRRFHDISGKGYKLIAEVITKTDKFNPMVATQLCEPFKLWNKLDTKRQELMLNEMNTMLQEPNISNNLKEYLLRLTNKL

[9] = NIH-3T3 fibroblast cytotoxicity, dose response, cytotoxicity control, cell-based, fluorescence, Alamar Blue, secondary assay (AID 2327); format: functional;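 further: NIH-3T3 mouse fibroblasts cultured with fluconazole at 8 µg/mL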
[10] = molecular target: T6, Replicative DNA helicase DnaB (Mycobacterium tuberculosis, UniProt P9WMR3); assay: DnaB intein splicing inhibitors, dose response, biochemical, cell-free fluorescence (AID 449749); format: functional
T6 sequence (P9WMR3 whole entry): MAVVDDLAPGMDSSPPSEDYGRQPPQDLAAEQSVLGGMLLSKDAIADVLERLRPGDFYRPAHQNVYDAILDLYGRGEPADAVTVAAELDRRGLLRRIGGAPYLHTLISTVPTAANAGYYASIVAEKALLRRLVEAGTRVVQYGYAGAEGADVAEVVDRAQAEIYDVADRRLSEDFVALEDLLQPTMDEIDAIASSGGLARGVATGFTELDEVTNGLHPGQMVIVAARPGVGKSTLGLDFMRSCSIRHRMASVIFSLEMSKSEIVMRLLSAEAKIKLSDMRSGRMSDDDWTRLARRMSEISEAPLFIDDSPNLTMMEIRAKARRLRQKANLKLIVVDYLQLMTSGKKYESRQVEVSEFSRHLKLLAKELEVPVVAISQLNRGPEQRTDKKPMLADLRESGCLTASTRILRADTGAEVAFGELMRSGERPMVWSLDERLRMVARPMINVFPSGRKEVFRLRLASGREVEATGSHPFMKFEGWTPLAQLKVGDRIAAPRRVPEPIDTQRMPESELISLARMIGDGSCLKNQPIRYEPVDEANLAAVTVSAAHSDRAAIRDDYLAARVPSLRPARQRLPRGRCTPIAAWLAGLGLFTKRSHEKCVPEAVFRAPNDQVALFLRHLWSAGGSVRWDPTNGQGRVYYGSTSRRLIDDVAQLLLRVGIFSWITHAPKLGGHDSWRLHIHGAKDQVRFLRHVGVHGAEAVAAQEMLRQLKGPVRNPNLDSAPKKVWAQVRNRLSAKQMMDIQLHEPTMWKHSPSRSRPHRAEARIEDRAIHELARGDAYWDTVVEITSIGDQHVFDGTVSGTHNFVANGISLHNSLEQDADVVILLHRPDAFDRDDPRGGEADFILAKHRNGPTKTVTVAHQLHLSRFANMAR

[11] = C. albicans growth with fluconazole, confirmation, fluorescence, retest (AID 2467); format: functional, cell-based
Trypsin = Trypsin (Sus scrofa, UniProt P00761); assay: porcine trypsin inhibitors, dose response, selectivity assay for Rce1 protease inhibitor project, biochemical, quenched peptide fluorescence, cherry-pick (AID 488789)
Kallikrein-7 = Kallikrein-7 (Homo sapiens, UniProt P49862); assay: Fluorescence Intensity-based biochemical primary high throughput dose response assay to identify activators of kallikrein-7 (K7) zymogen.
Estrogen receptor beta [12] = molecular target: T7, Estrogen receptor beta (Homo sapiens, UniProt Q92731);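 further: recombinant ER-beta bound to coactivator SRC1 peptide in presence of estradiol agonist; inhibitors block coactivator peptide binding and lower the FRET signal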
T7 sequence (Q92731 whole entry): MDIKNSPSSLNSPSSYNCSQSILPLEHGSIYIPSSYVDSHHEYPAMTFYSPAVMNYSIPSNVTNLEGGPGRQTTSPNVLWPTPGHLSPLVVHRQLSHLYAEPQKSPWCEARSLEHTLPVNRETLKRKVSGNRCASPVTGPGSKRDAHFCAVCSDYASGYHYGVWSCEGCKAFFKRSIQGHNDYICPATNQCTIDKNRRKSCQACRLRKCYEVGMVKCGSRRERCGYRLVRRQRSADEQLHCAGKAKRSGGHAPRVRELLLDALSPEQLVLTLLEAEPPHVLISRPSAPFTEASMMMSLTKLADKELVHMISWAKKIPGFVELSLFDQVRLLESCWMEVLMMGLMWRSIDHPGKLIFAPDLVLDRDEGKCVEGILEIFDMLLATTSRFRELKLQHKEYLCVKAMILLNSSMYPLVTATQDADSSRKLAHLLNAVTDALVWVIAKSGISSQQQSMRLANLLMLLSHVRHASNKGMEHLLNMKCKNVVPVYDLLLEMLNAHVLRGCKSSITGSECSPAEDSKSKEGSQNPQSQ

Estrogen receptor beta [13] = molecular target: T7, Estrogen receptor beta; assay: ERβ–SRC-3 coactivator interaction inhibitors, confirmation, orthogonal assay, biochemical, ELISA, streptavidin-HRP readout (AID 1060)

COC(=O)C1=C(C)N(c2ccccc2)/C(=C/c2cccs2)C1=O
IC50 (Bcl-2-like protein 10): > 50 µM (inactive)

O=S(=O)(c1ccccc1)N(F)S(=O)(=O)c1ccccc1
IC50 [1]: 55.3 µM (active)

CCCC1=C(C(=O)OCC)C(c2cc(Cl)cc(OC)c2OCC(=O)OCC)NC(=O)N1 (stereo not drawn)
IC50 (Bcl-2-like protein 10): > 100 µM (inactive)

Cc1sc(Cc2nc(O)cs2)nc1-c1ccccc1
IC50 [2]: 15.6 µM (active)
IC50 [3]: > 32 µM
EC50 (Beta-galactosidase): > 31.5 µM (inactive)

Oc1ccccc1C1=Nc2nc3ccccc3n2C(c2ccccc2)C1 (stereo not drawn)
EC50 [4]: 6.95 µM (active)

CCc1ccc(S(=O)(=O)NCCc2csc(-c3ccccc3)n2)s1
EC50 [4]: 4.22 µM (active)

Cc1nc2scc(-c3ccccc3)c2c(=O)n1N=C1C=CC(=O)C=C1
EC50 [5]: 2.23 µM (active)
IC50 [2]: 9.24 µM (active)
IC50 [3]: 16.5 µM
EC50 [6]: 7.47 µM (active)
EC50 (Beta-galactosidase): > 31.5 µM (inactive)
EC50 [7]: 5.96 µM (active)
IC50 [1]: 9.73 µM (active)

O=C(O)COc1ccccc1C(Nc1cccnc1)c1cc(Cl)c2cccnc2c1O (stereo not drawn)
IC50 [8]: 1.71 µM (active)
EC50 (Protein RecA): 11.8 µM (active)
IC50 (Large T antigen): 10.3 µM (active)
IC50 (Aminopeptidase N): 38.4 µM (active)
EC50 [9]: > 150 µM (inactive)
AC50 [10]: > 380 µM (inactive)
EC50 [11]: > 38 µM (not active)

O=C1NC(c2ccc(Br)cc2)Nc2ccccc21 (stereo not drawn)
AC50 (Trypsin): 15.3 µM (active)
EC50 (Kallikrein-7): > 69.5 µM (inactive)

CSc1ccccc1NC(=O)c1noc2c1CCC2
IC50 (Bcl-2-like protein 10): 12.6 µM (active)
IC50 (Estrogen receptor beta [12]): 3.77 µM (active)
IC50 (Estrogen receptor beta [13]): > 50 µM (not active)

COc1ccc(N(CC(=O)Nc2cccc(C(F)(F)F)c2)S(C)(=O)=O)cc1
EC50 [4]: 7.98 µM (active)
